# pIC50: −log10 of the molar value.
# Legend:
# [1] = system: IL-17A-induced G-CSF production in human normal keratinocyte (NHK); test: NHK Assay: IL-17A-induced G-CSF production in human normal keratinocytes; format: cell-based; details: Homo sapiens, Keratinocyte, 24 h, adult normal human keratinocytes, IL-17A 5 ng/mL, simple average if tested more than once
# Summary of the method: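 Compound is first combined with recombinant human IL-17A for 1 h at rt, and the mix is added to adult normal human keratinocytes so that IL-17A is 5 ng/mL. After 24 h at 37° C in 5% FBS, G-CSF released into the medium is read by HTRF and IC50 derived.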
# [2] = target: IL-17A(FLAG-Tagged): IL-17RA(His-Tagged) (Homo sapiens, UniProt Q16552, K93Q); test: IL-17A(FLAG-Tagged): IL-17RA(His-Tagged) Binding Disruption Eu-HTRF Assay; details: IL-17A/IL-17RA binding disruption, simple average if tested more than once
# UniProt Q16552, sequence (Q16552 with tags, fused parts or gaps K93Q): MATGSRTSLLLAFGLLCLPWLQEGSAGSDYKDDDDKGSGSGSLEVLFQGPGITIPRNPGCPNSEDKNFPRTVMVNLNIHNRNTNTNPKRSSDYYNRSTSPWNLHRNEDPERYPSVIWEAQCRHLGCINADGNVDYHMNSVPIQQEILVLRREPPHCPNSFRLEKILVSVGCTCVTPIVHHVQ
# Summary of the method: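 IC50 comes from a one-site competition fit of the HTRF 665/620 nm ratio. Compound dilutions (2-fold, 22 points) were held 1 h rt with FLAG-tagged IL-17A dimer, then His-tagged IL-17RA plus Eu-cryptate anti-FLAG and D2 anti-His antibodies were added for 2 h rt.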
Structure (SMILES),pIC50 [2],pIC50 [1]
"CC(=O)N(C)CCn1ncc(C(=O)N[C@H](c2cn3ncc([C@H](NC(=O)CCC(F)(F)F)C4CC4)cc3n2)C2CCC(F)(F)CC2)n1 [Example 114, N—((S)-(7-((R)-Cyclopropyl(4,4,4-trifluorobutanamido)methyl)imidazo[1,2-b]pyridazin-2-yl)(4,4-difluorocyclohexyl)methyl)-2-(2-(N-methylacetamido)ethyl)-2H-1,2,3-triazole-4-carboxamide]",5.68,6.43
"CC(C)n1nccc1C(=O)N[C@H](c1nc2cc([C@H](NC(=O)CCC(F)(F)F)C3CC3)cnn2c1F)C1CCC(F)(F)CC1 [Example 118, N—((S)-(7-((R)-Cyclopropyl(4,4,4-trifluorobutanamido)methyl)-3-fluoroimidazo[1,2-b]pyridazin-2-yl)(4,4-difluorocyclohexyl)methyl)-1-isopropyl-1H-pyrazole-5-carboxamide]",6.60,6.43
"CC(C)n1nccc1C(=O)N[C@H](c1cn2ncc([C@H](NC(=O)CC3CC(F)(F)C3)C3CC3)cc2n1)C1CCC(F)(F)CC1 [Example 119, N—((S)-(7-((R)-Cyclopropyl(2-(3,3-difluorocyclobutyl)acetamido)methyl)imidazo[1,2-b]pyridazin-2-yl)(4,4-difluorocyclohexyl)methyl)-1-isopropyl-1H-pyrazole-5-carboxamide]",7.02,7.44
"Cc1nocc1C(=O)N[C@H](c1cn2ncc([C@H](NC(=O)CC3CC(F)(F)C3)C3CC3)cc2n1)C1CCC(F)(F)CC1 [Example 120, N—((S)-(7-((R)-Cyclopropyl(2-(3,3-difluorocyclobutyl)acetamido)methyl)imidazo[1,2-b]pyridazin-2-yl)(4,4-difluorocyclohexyl)methyl)-3-methylisoxazole-4-carboxamide]",7.32,6.82
"O=C(CC1CC(F)(F)C1)N[C@@H](c1cnn2cc([C@@H](NC(=O)c3conc3C3CC3)C3CCC(F)(F)CC3)nc2c1)C1CC1 [Example 125, 3-Cyclopropyl-N—((S)-(7-((R)-cyclopropyl(2-(3,3-difluorocyclobutyl)acetamido)methyl)imidazo[1,2-b]pyridazin-2-yl)(4,4-difluorocyclohexyl)methyl)isoxazole-4-carboxamide]",7.43,7.11
"CCn1nccc1C(=O)N[C@H](c1cn2ncc([C@H](NC(=O)CC3CC(F)(F)C3)C3CC3)cc2n1)C1CCC(F)(F)CC1 [Example 126, N—((S)-(7-((R)-Cyclopropyl(2-(3,3-difluorocyclobutyl)acetamido)methyl)imidazo[1,2-b]pyridazin-2-yl)(4,4-difluorocyclohexyl)methyl)-1-ethyl-1H-pyrazole-5-carboxamide]",7.34,7.08
"Cc1nonc1C(=O)N[C@H](c1cn2ncc([C@H](NC(=O)CC3CC(F)(F)C3)C3CC3)cc2n1)C1CCC(F)(F)CC1 [Example 142, N—((S)-(7-((R)-Cyclopropyl(2-(3,3-difluorocyclobutyl)acetamido)methyl)imidazo[1,2-b]pyridazin-2-yl)(4,4-difluorocyclohexyl)methyl)-4-methyl-1,2,5-oxadiazole-3-carboxamide]",7.47,6.85
"N#CC12CC(Cn3nncc3C(=O)N[C@H](c3cn4ncc([C@H](NC(=O)CCC(F)(F)F)C5CC5)cc4n3)C3CCC(F)(F)CC3)(C1)C2 [Example 145, 1-((3-Cyanobicyclo[1.1.1]pentan-1-yl)methyl)-N—((S)-(7-((R)-cyclopropyl(4,4,4-trifluorobutanamido)methyl)imidazo[1,2-b]pyridazin-2-yl)(4,4-difluorocyclohexyl)methyl)-1H-1,2,3-triazole-5-carboxamide]",6.19,6.52
"N#CC12CC(Cn3ncc(C(=O)N[C@H](c4cn5ncc([C@H](NC(=O)CCC(F)(F)F)C6CC6)cc5n4)C4CCC(F)(F)CC4)n3)(C1)C2 [Example 146, 2-((3-Cyanobicyclo[1.1.1]pentan-1-yl)methyl)-N—((S)-(7-((R)-cyclopropyl(4,4,4-trifluorobutanamido)methyl)imidazo[1,2-b]pyridazin-2-yl)(4,4-difluorocyclohexyl)methyl)-2H-1,2,3-triazole-4-carboxamide]",6.17,6.15
"N#CC12CC(Cn3cc(C(=O)N[C@H](c4cn5ncc([C@H](NC(=O)CCC(F)(F)F)C6CC6)cc5n4)C4CCC(F)(F)CC4)nn3)(C1)C2 [Example 147, 1-((3-Cyanobicyclo[1.1.1]pentan-1-yl)methyl)-N—((S)-(7-((R)-cyclopropyl(4,4,4-trifluorobutanamido)methyl)imidazo[1,2-b]pyridazin-2-yl)(4,4-difluorocyclohexyl)methyl)-1H-1,2,3-triazole-4-carboxamide]",5.77,< 4.70
"CC1(C(=O)N[C@H](c2cn3ncc([C@H](NC(=O)CCC(F)(F)F)C4CC4)cc3n2)C2CCC(F)(F)CC2)CC1(F)F (stereo partly drawn) [Example 148, N—((S)-(7-((R)-Cyclopropyl(4,4,4-trifluorobutanamido)methyl)imidazo[1,2-b]pyridazin-2-yl)(4,4-difluorocyclohexyl)methyl)-2,2-difluoro-1-methylcyclopropane-1-carboxamide]",6.03,5.77
"O=C(CCC(F)(F)F)N[C@@H](c1cnn2cc([C@@H](NC(=O)c3cncc(CCC(F)F)c3)C3CCC(F)(F)CC3)nc2c1)C1CC1 [Example 151, N—((S)-(7-((R)-Cyclopropyl(4,4,4-trifluorobutanamido)methyl)imidazo[1,2-b]pyridazin-2-yl)(4,4-difluorocyclohexyl)methyl)-5-(3,3-difluoropropyl)nicotinamide]",7.17,6.70
"Cc1nocc1C(=O)N[C@H](c1cn2ncc(C(C)NC(=O)CCC(F)(F)F)cc2n1)C1CCC(F)(F)CC1 (stereo partly drawn) [Example 153, N-((1S)-(4,4-Difluorocyclohexyl)(7-(1-(4,4,4-trifluorobutanamido)ethyl)imidazo[1,2-b]pyridazin-2-yl)methyl)-3-methylisoxazole-4-carboxamide]",6.38,6.32

# Now from value to compound, other results behind:
pIC50 [2],Structure (SMILES),pIC50 [1]
7.40,"CCn1nccc1C(=O)N[C@H](c1cn2ncc([C@H](NC(=O)CCC(F)(F)F)C3CC3)cc2n1)C1CCC(F)(F)CC1 [Example 127, N—((S)-(7-((R)-Cyclopropyl(4,4,4-trifluorobutanamido)methyl)imidazo[1,2-b]pyridazin-2-yl)(4,4-difluorocyclohexyl)methyl)-1-ethyl-1H-pyrazole-5-carboxamide]",7.00
7.49,"O=C(CCC(F)(F)F)N[C@@H](c1cnn2cc([C@@H](NC(=O)c3cncc(CC(F)F)c3)C3CCC(F)(F)CC3)nc2c1)C1CC1 [Example 152, N—((S)-(7-((R)-Cyclopropyl(4,4,4-trifluorobutanamido)methyl)imidazo[1,2-b]pyridazin-2-yl)(4,4-difluorocyclohexyl)methyl)-5-(2,2-difluoroethyl)nicotinamide]",6.74
7.89,"CCc1nonc1C(=O)N[C@H](c1cn2ncc([C@H](NC(=O)CCC(F)(F)F)C3CC3)cc2n1)C1CCC(F)(F)CC1 [Example 156, N—((S)-(7-((R)-Cyclopropyl(4,4,4-trifluorobutanamido)methyl)imidazo[1,2-b]pyridazin-2-yl)(4,4-difluorocyclohexyl)methyl)-4-ethyl-1,2,5-oxadiazole-3-carboxamide]",7.22
7.44,"Cc1nonc1C(=O)N[C@H](c1cn2ncc([C@H](NC(=O)CCC(F)(F)F)C3CC3)cc2n1)C1CCC(F)(F)CC1 [Example 157, N—((S)-(7-((R)-Cyclopropyl(4,4,4-trifluorobutanamido)methyl)imidazo[1,2-b]pyridazin-2-yl)(4,4-difluorocyclohexyl)methyl)-4-methyl-1,2,5-oxadiazole-3-carboxamide]",6.82
7.32,"Cc1conc1C(=O)N[C@H](c1cn2ncc([C@H](NC(=O)CCC(F)(F)F)C3CC3)cc2n1)C1CCC(F)(F)CC1 [Example 158, N—((S)-(7-((R)-Cyclopropyl(4,4,4-trifluorobutanamido)methyl)imidazo[1,2-b]pyridazin-2-yl)(4,4-difluorocyclohexyl)methyl)-4-methylisoxazole-3-carboxamide]",6.68
7.00,"Cc1oncc1C(=O)N[C@H](c1cn2ncc([C@H](NC(=O)CCC(F)(F)F)C3CC3)cc2n1)C1CCC(F)(F)CC1 [Example 159, N—((S)-(7-((R)-Cyclopropyl(4,4,4-trifluorobutanamido)methyl)imidazo[1,2-b]pyridazin-2-yl)(4,4-difluorocyclohexyl)methyl)-5-methylisoxazole-4-carboxamide]",6.59
7.14,"Cc1cnoc1C(=O)N[C@H](c1cn2ncc([C@H](NC(=O)CCC(F)(F)F)C3CC3)cc2n1)C1CCC(F)(F)CC1 [Example 160, N—((S)-(7-((R)-Cyclopropyl(4,4,4-trifluorobutanamido)methyl)imidazo[1,2-b]pyridazin-2-yl)(4,4-difluorocyclohexyl)methyl)-4-methylisoxazole-5-carboxamide]",6.57
7.21,"Cc1nscc1C(=O)N[C@H](c1cn2ncc([C@H](NC(=O)CCC(F)(F)F)C3CC3)cc2n1)C1CCC(F)(F)CC1 [Example 161, N—((S)-(7-((R)-Cyclopropyl(4,4,4-trifluorobutanamido)methyl)imidazo[1,2-b]pyridazin-2-yl)(4,4-difluorocyclohexyl)methyl)-3-methylisothiazole-4-carboxamide]",6.51

# From patent US11702422B2, “Imidazopyridazines as modulators of IL-17” (Janssen Pharmaceutica NV, priority 2020, dated 2023)
